Source: patent US7307063B2, “Melanocortin metallopeptides for treatment of sexual dysfunction” (Palatin Technologies, Inc., priority 2001, dated 2007)
Non-standard residues stand in square brackets, D forms with d. No end group written: not given here. 2Nal = N[C@@H](Cc1ccc2ccccc2c1)C(=O)O; Ac6c = NC1(C(=O)O)CCCCC1; Nle = CCCC[C@H](N)C(=O)O

What was measured:
MC4-R = target: T1, MC4-R (Homo sapiens, UniProt P32245); assay: Competitive binding assay: inhibition of 125I-NDP-α-MSH binding to HEK-293 membranes with cloned human receptor subtype 4; conditions: Table 6; 1 μM; mean of triplicate
T1 construct: expressed in transfected cells; host or cells: HEK-293
Protocol: (§1) Rhenium-complexed metallopeptides of the formulas given in Table 1 were prepared, with the metallopeptides complexed with rhenium using the rhenium transfer agent ReOCl3(PPh3)2 in the presence of 1,8-Diazabicyclo[5,4,0] undec-7-ene as a base, as disclosed in International Application PCT/US00/16396, filed Jun. 14, 2000, Melanocortin Metallopeptide Constructs, Combinatorial Libraries and Applications, incorporated by reference herein. Affinities of compounds were measured using membranes from HEK-293 cells containing cloned human melanocortin receptor subtypes 3, 4 and 5. MC1-R membranes were isolated from B16—F10 mouse melanoma cells. The assay tube also contained a chosen concentration of the test peptide of this invention, complexed to a rhenium metal ion as indicated, for determining its efficacy in inhibiting the binding of ^125I-NDP-α-MSH to its receptor. Non-specific binding was measured by complete inhibition of binding of ^125I-NDP-α-MSH in the assay with the presence of 1 μM α-MSH. 100% specific binding was defined as the difference in radioactivity (cpm) bound to cell membranes in the absence and presence of 1 μM α-MSH. The cpm obtained in presence of test compounds were normalized with respect to 100% specific binding to determine the percent inhibition of ^125I-NDP-α-MSH binding.
(§2) Peptide sequences set forth in Table 6 were prepared using conventional synthetic means. The resulting sequences were rhenium-complexed to form metallopeptides, with the metallopeptides complexed with rhenium using the rhenium transfer agent ReOCl3(PPh3)2 in the presence of 1,8-Diazabicyclo[5,4,0] undec-7-ene as a base. Percent inhibition was determined as in Example 1 using the Re-complexed metallopeptides, using the same methods as described therein. All measures are means of triplicate determinations.

MC1-R = target: T2, MC1-R (Mus musculus, UniProt Q01727); assay: Competitive binding assay: inhibition of 125I-NDP-α-MSH binding to membranes from B16-F10 mouse melanoma cells; conditions: Table 6; 1 μM; mean of triplicate
T2 construct: MC1-R membranes were isolated from B16—F10 mouse melanoma cells; endogenous in cells; host or cells: B16-F10 mouse melanoma cells
Protocol: as §1, §2

hMC2-R = target: T3, hMC2-R (Homo sapiens, UniProt P41968); assay: Competitive binding assay of additional compounds, Table 6 hMC2-R; conditions: 1 μM, mean of triplicate
T3 construct: expressed in transfected cells; host or cells: HEK-293
Protocol: [The source words this procedure for another target and reports this target under the same test.] as §1, §2

hMC5-R = target: T4, hMC5-R (Homo sapiens, UniProt P33032); assay: Competitive binding assay: inhibition of 125I-NDP-α-MSH binding to HEK-293 membranes with cloned human receptor subtype 5; conditions: Table 6; 1 μM; mean of triplicate
T4 construct: expressed in transfected cells; host or cells: HEK-293
Protocol: as §1, §2

T2 sequence (Q01727 whole entry): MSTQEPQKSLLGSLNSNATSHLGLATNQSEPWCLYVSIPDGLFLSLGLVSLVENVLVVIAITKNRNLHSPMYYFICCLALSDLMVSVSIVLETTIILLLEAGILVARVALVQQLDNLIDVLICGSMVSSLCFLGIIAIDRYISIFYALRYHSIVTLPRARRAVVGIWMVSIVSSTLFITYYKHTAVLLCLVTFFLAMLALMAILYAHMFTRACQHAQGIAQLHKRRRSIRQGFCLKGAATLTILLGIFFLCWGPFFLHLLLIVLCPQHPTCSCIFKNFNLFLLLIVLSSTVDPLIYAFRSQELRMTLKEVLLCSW
T4 sequence (P33032 whole entry): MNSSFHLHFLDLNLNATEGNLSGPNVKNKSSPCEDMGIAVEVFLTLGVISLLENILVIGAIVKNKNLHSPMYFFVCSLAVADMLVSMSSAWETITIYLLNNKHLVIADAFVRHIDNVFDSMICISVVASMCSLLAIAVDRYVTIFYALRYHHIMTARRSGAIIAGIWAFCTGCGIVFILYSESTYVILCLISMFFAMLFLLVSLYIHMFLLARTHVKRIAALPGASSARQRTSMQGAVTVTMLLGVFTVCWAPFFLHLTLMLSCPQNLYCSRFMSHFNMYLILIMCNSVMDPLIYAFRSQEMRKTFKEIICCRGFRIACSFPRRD
T3 sequence (P41968 whole entry): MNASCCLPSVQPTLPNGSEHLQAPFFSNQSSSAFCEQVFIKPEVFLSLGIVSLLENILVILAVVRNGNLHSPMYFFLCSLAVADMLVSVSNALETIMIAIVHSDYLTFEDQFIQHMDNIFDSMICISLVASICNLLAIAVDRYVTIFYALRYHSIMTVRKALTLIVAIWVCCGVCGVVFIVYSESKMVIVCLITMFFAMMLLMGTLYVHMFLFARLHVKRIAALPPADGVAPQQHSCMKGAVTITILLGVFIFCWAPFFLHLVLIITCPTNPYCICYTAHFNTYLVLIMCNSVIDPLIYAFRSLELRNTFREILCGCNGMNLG
T1 sequence (P32245 whole entry): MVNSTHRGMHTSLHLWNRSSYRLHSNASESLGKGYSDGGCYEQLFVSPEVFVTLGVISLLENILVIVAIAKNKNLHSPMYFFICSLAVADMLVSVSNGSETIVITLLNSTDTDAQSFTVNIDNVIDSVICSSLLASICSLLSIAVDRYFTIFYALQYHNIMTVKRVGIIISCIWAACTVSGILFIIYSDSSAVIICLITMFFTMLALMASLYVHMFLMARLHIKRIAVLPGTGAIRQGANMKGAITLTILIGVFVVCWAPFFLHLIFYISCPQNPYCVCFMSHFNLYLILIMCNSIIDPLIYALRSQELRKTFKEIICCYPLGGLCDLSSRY

Nal 2′-D-Phe-Arg-Cys-Trp-NH2 ([2Nal][dF]RCW-NH2; also: metal complex)
% Inhibition of Binding hMC4-R (MC4-R): 21% | % Inhibition of Binding MC1-R (MC1-R): 39% | % Inhibition of Binding hMC2-R (hMC2-R): 13% | % Inhibition of Binding hMC5-R (hMC5-R): 63%

Ac-Nle-Ala-D-Tyr-D-Phe-Arg-Cys-Trp-NH2 (Ac-[Nle]A[dY][dF]RCW-NH2; not fully specified; printed as Ac-Nle-Ala-D-Tyr-D-Phe-Arg-Cys-Trp-NH2)
% Inhibition of Binding hMC4-R (MC4-R): 1% | % Inhibition of Binding MC1-R (MC1-R): 15% | % Inhibition of Binding hMC2-R (hMC2-R): 0% | % Inhibition of Binding hMC5-R (hMC5-R): 0%

Amc-D-Phe-Arg-Cys-Trp-NH2
% Inhibition of Binding hMC4-R (MC4-R): 4% | % Inhibition of Binding MC1-R (MC1-R): 7% | % Inhibition of Binding hMC2-R (hMC2-R): 0% | % Inhibition of Binding hMC5-R (hMC5-R): 8%

Tic-D-Nal-2′-Arg-Trp-Cys-NH2
% Inhibition of Binding hMC4-R (MC4-R): 92% | % Inhibition of Binding MC1-R (MC1-R): 10% | % Inhibition of Binding hMC2-R (hMC2-R): 52% | % Inhibition of Binding hMC5-R (hMC5-R): 83%

1-amino-1-cyclohexane carboxyl-D-Phe-Arg-Cys-Trp-NH2 ([Ac6c][dF]RCW-NH2; N-terminus assumed; SMILES N=C(N)NCCC[C@H](NC(=O)[C@@H](Cc1ccccc1)NC(=O)C1(N)CCCCC1)C(=O)N[C@@H](CS)C(=O)N[C@@H](Cc1c[nH]c2ccccc12)C(N)=O)
% Inhibition of Binding hMC4-R (MC4-R): 14% | % Inhibition of Binding MC1-R (MC1-R): 92% | % Inhibition of Binding hMC2-R (hMC2-R): 0% | % Inhibition of Binding hMC5-R (hMC5-R): 65%

Pro-D-Phe-Arg-Cys-Trp-NH2 (P[dF]RCW-NH2; also: metal complex)
% Inhibition of Binding hMC4-R (MC4-R): 2% | % Inhibition of Binding MC1-R (MC1-R): 27% | % Inhibition of Binding hMC2-R (hMC2-R): 0% | % Inhibition of Binding hMC5-R (hMC5-R): 33%

Ac-[Nle]AH[dF]R[dH]C-NH2
% Inhibition of Binding hMC4-R (MC4-R): 16% | % Inhibition of Binding MC1-R (MC1-R): 52% | % Inhibition of Binding hMC2-R (hMC2-R): 0% | % Inhibition of Binding hMC5-R (hMC5-R): 0%

Ac-Nle-Ala-His-D-Phe-Arg-Nal 2′-Cys-NH2
% Inhibition of Binding hMC4-R (MC4-R): 89% | % Inhibition of Binding MC1-R (MC1-R): 99% | % Inhibition of Binding hMC2-R (hMC2-R): 40% | % Inhibition of Binding hMC5-R (hMC5-R): 83%

Ac-[Nle]AT[dF]RCW-NH2
% Inhibition of Binding hMC4-R (MC4-R): 11% | % Inhibition of Binding MC1-R (MC1-R): 30% | % Inhibition of Binding hMC2-R (hMC2-R): 8% | % Inhibition of Binding hMC5-R (hMC5-R): 7%

Ac-[Nle]AW[dF]RCW-NH2
% Inhibition of Binding hMC4-R (MC4-R): 9% | % Inhibition of Binding MC1-R (MC1-R): 45% | % Inhibition of Binding hMC2-R (hMC2-R): 0% | % Inhibition of Binding hMC5-R (hMC5-R): 62%

3′-Br Phenyl acetyl-Arg-Arg-D-Phe(4′-CF3)-Cys-Trp-NH2
% Inhibition of Binding hMC4-R (MC4-R): 89% | % Inhibition of Binding MC1-R (MC1-R): 72% | % Inhibition of Binding hMC2-R (hMC2-R): 94% | % Inhibition of Binding hMC5-R (hMC5-R): 99%

Ac-[Nle]AL[dF]RCW-NH2
% Inhibition of Binding hMC4-R (MC4-R): 18% | % Inhibition of Binding MC1-R (MC1-R): 81% | % Inhibition of Binding hMC2-R (hMC2-R): 4% | % Inhibition of Binding hMC5-R (hMC5-R): 87%

Tic-D-Phe(4′-Cl)-Gln-Cys-NH2
% Inhibition of Binding hMC4-R (MC4-R): 0% | % Inhibition of Binding MC1-R (MC1-R): 2% | % Inhibition of Binding hMC2-R (hMC2-R): 3% | % Inhibition of Binding hMC5-R (hMC5-R): 13%

D-Igl-D-Nal 2′-Arg-Trp-Cys-NH2
% Inhibition of Binding hMC4-R (MC4-R): 97% | % Inhibition of Binding MC1-R (MC1-R): 27% | % Inhibition of Binding hMC2-R (hMC2-R): 73% | % Inhibition of Binding hMC5-R (hMC5-R): 85%

D-Tiq-D-Phe-Arg-Trp-Cys-NH2
% Inhibition of Binding hMC4-R (MC4-R): 34% | % Inhibition of Binding MC1-R (MC1-R): 5% | % Inhibition of Binding hMC2-R (hMC2-R): 0% | % Inhibition of Binding hMC5-R (hMC5-R): 23%

Ac-[Nle]H[dF]RCW-NH2
% Inhibition of Binding hMC4-R (MC4-R): 2% | % Inhibition of Binding MC1-R (MC1-R): 77% | % Inhibition of Binding hMC2-R (hMC2-R): 0% | % Inhibition of Binding hMC5-R (hMC5-R): 28%

Ser(Bzl)-D-Nal 2′-Arg-Nal 2′-Cys-NH2
% Inhibition of Binding hMC4-R (MC4-R): 71% | % Inhibition of Binding MC1-R (MC1-R): 18% | % Inhibition of Binding hMC2-R (hMC2-R): 23% | % Inhibition of Binding hMC5-R (hMC5-R): 91%

3′-Br Phenyl acetyl-Arg-Arg-D-Bip-Cys-Bip-NH2
% Inhibition of Binding hMC4-R (MC4-R): 68% | % Inhibition of Binding MC1-R (MC1-R): 56% | % Inhibition of Binding hMC2-R (hMC2-R): 46% | % Inhibition of Binding hMC5-R (hMC5-R): 92%
